Laboratory results reported in ChEMBL document CHEMBL1201862, “PubChem BioAssay data set” (2004).
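Where inhibition never reached the appropriate level, the endpoint shown equals the highest concentration tested. Otherwise, values were interpolated linearly from a five-concentration, 48-hour dose response in 96-well plates. At the GI50, growth is halved.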 Active and inactive are the calls of the source. No stated cut-off is given here; in the data, active = GI50 up to about 1.1 µM and inactive = higher.

Columns and labels:
Assay in all cases: NCI tumour cell line growth inhibition, 48 h
A498 = tested on: A498
A549 = tested on: A549
HCT-116 = tested on: HCT-116
HL-60 = tested on: HL-60
HT-29 = tested on: HT-29
Hs-578T = tested on: Hs-578T
K562 = tested on: K562
M14 = tested on: M14
MDA-MB-231 = tested on: MDA-MB-231
MDA-MB-435 = tested on: MDA-MB-435
NCI-H23 = tested on: NCI-H23
NCI-H522 = tested on: NCI-H522
NCI/ADR-RES = tested on: NCI/ADR-RES
OVCAR-3 = tested on: OVCAR-3
OVCAR-4 = tested on: OVCAR-4
SF-295 = tested on: SF-295
SK-MEL-28 = tested on: SK-MEL-28
SK-MEL-5 = tested on: SK-MEL-5
SN12C = tested on: SN12C
SNB-75 = tested on: SNB-75

SMILES | GI50 (A498) | GI50 (A549) | GI50 (HCT-116) | GI50 (HL-60) | GI50 (HT-29) | GI50 (Hs-578T) | GI50 (K562) | GI50 (M14) | GI50 (MDA-MB-231) | GI50 (MDA-MB-435) | GI50 (NCI-H23) | GI50 (NCI-H522) | GI50 (NCI/ADR-RES) | GI50 (OVCAR-3) | GI50 (OVCAR-4) | GI50 (SF-295) | GI50 (SK-MEL-28) | GI50 (SK-MEL-5) | GI50 (SN12C) | GI50 (SNB-75)
COc1cc(C(c2c(O)c3ccccc3oc2=O)c2c(O)c3ccccc3oc2=O)cc(Br)c1O | 15.9 µM (inactive) | 18.4 µM (inactive) | 17.5 µM (inactive) | 27.7 µM (inactive) | 20 µM (inactive) | 20.2 µM (inactive) | 30.3 µM (inactive) | 16.8 µM (inactive) | 17.8 µM (inactive) | 20.3 µM (inactive) | 22.2 µM (inactive) | 12.9 µM (inactive) | 23 µM (inactive) | 15.9 µM (inactive) | 15.4 µM (inactive) | 21.1 µM (inactive) | 21.6 µM (inactive) | 16.3 µM (inactive) | 15.8 µM (inactive) | 18.8 µM (inactive)
N=c1sc2ccccc2n1CC[S-].c1ccc2c(c1)sc1[n+]2CCS1 | 14.7 µM (inactive) | 16.9 µM (inactive) | 16.9 µM (inactive) | 22.5 µM (inactive) | 19 µM (inactive) | 42.6 µM (inactive) | 16.7 µM (inactive) | 16.1 µM (inactive) | 17 µM (inactive) | 15.7 µM (inactive) | 16.1 µM (inactive) | 18 µM (inactive) | 20.4 µM (inactive) | 19.3 µM (inactive) | 16.4 µM (inactive) | 17.4 µM (inactive) | 18.7 µM (inactive) | 14.8 µM (inactive) | 21.1 µM (inactive) | 41.5 µM (inactive)
Cc1cc(-c2nc3cc(O)ccc3s2)ccc1N | 24.7 µM (inactive) | 37 µM (inactive) | 22.8 µM (inactive) | 32.1 µM (inactive) | 21.5 µM (inactive) | 35.2 µM (inactive) | 38.5 µM (inactive) | 20.9 µM (inactive) | 30 µM (inactive) | 33.3 µM (inactive) | 46.1 µM (inactive) | 31 µM (inactive) | 38.1 µM (inactive) | 23.5 µM (inactive) | 28 µM (inactive) | 26 µM (inactive) | 27.8 µM (inactive) | 22.5 µM (inactive) | 28.8 µM (inactive) | 23.7 µM (inactive)
CCCCCCC(=O)OC[n+]1cccc(-c2c(COC(=O)NC(C)C)c(COC(=O)NC(C)C)c3n2CCC3)c1 | 23 µM (inactive) | 60 µM (inactive) | 32.8 µM (inactive) | 8.57 µM (inactive) | 40.6 µM (inactive) | > 57.4 µM (inactive) | 31.6 µM (inactive) | 39.2 µM (inactive) | 47.3 µM (inactive) | 70.8 µM (inactive) | 26.9 µM (inactive) | 22.6 µM (inactive) | 32.4 µM (inactive) | 41.4 µM (inactive) | 33.7 µM (inactive) | > 62.2 µM (inactive) | > 100 µM (inactive) | 32.4 µM (inactive) | 31 µM (inactive) | 35.4 µM (inactive)
CCO/C=N\c1c(C#N)c(-c2ccc(Cl)cc2)cn1-c1ccc(C)cc1 | > 100 µM (inactive) | > 100 µM (inactive) | > 100 µM (inactive) | > 100 µM (inactive) | > 100 µM (inactive) | 95.9 µM (inactive) | > 100 µM (inactive) | > 100 µM (inactive) | > 100 µM (inactive) | > 100 µM (inactive) | > 100 µM (inactive) | > 100 µM (inactive) | > 100 µM (inactive) | > 100 µM (inactive) | > 100 µM (inactive) | > 100 µM (inactive) | > 100 µM (inactive) | > 100 µM (inactive) | > 100 µM (inactive) | > 100 µM (inactive)
Fc1ccc(C(OCCN2CC3CCC(C2)N3CCCc2ccccc2)c2ccc(F)cc2)cc1 | 4.27 µM (inactive) | 8.15 µM (inactive) | 2.93 µM (inactive) | 3.08 µM (inactive) | 3.29 µM (inactive) | 3.25 µM (inactive) | 2 µM (inactive) | 2.48 µM (inactive) | 2.74 µM (inactive) | 2.13 µM (inactive) | 4.25 µM (inactive) | 2.17 µM (inactive) | 3.89 µM (inactive) | 5.92 µM (inactive) | 3.94 µM (inactive) | 3.15 µM (inactive) | 8.99 µM (inactive) | 1.82 µM (inactive) | 3.81 µM (inactive) | 3.37 µM (inactive)
c1ccc2c(Cc3[nH]c4ccccc4c3Cc3c[nH]c4ccccc34)c[nH]c2c1 | 2.39 µM (inactive) | 3.1 µM (inactive) | 1.69 µM (inactive) | 1.86 µM (inactive) | 2.52 µM (inactive) | 1.47 µM (inactive) | 2.33 µM (inactive) | 2.36 µM (inactive) | 2.12 µM (inactive) | 2.08 µM (inactive) | 2.1 µM (inactive) | 1.8 µM (inactive) | 2.55 µM (inactive) | 3.16 µM (inactive) | 3.06 µM (inactive) | 4.3 µM (inactive) | 6.21 µM (inactive) | 2.17 µM (inactive) | 1.77 µM (inactive) | 2.48 µM (inactive)
O=c1cc(NNc2ccccc2)[nH]c(=S)[nH]1 | > 100 µM (inactive) | > 100 µM (inactive) | 23.2 µM (inactive) | 25.1 µM (inactive) | 37.8 µM (inactive) | > 100 µM (inactive) | 32.4 µM (inactive) | 36.7 µM (inactive) | 32.1 µM (inactive) | 49.5 µM (inactive) | 47.1 µM (inactive) | 17.5 µM (inactive) | 40.6 µM (inactive) | 16.7 µM (inactive) | 71 µM (inactive) | > 100 µM (inactive) | 42.7 µM (inactive) | 57 µM (inactive) | > 100 µM (inactive) | > 100 µM (inactive)
Cc1cccc(NC(=O)CC(=O)N2N=C(N3c4ccccc4Sc4ccccc43)CC2c2ccccc2)c1 (stereo not given) | > 100 µM (inactive) | > 100 µM (inactive) | > 100 µM (inactive) | > 100 µM (inactive) | > 100 µM (inactive) | > 100 µM (inactive) | > 100 µM (inactive) | > 100 µM (inactive) | > 100 µM (inactive) | > 100 µM (inactive) | > 100 µM (inactive) | > 100 µM (inactive) | > 100 µM (inactive) | > 100 µM (inactive) | > 100 µM (inactive) | > 100 µM (inactive) | > 100 µM (inactive) | > 100 µM (inactive) | > 100 µM (inactive) | > 100 µM (inactive)
COc1ccc(-c2oc3c(OC)c(OC)cc(O)c3c(=O)c2OC)cc1 | 45.8 µM (inactive) | > 100 µM (inactive) | 46.5 µM (inactive) | > 100 µM (inactive) | > 100 µM (inactive) | 58.3 µM (inactive) | > 100 µM (inactive) | > 100 µM (inactive) | 69.2 µM (inactive) | > 100 µM (inactive) | > 100 µM (inactive) | 54.8 µM (inactive) | > 100 µM (inactive) | > 100 µM (inactive) | > 100 µM (inactive) | > 100 µM (inactive) | > 100 µM (inactive) | 91.6 µM (inactive) | > 100 µM (inactive) | > 10 µM (inactive)
S=C1NCCN1C(=S)NC1CCCCC1 | 18.8 µM (inactive) | 27 µM (inactive) | 30.3 µM (inactive) | 40.7 µM (inactive) | 21.8 µM (inactive) | 21.2 µM (inactive) | 36.8 µM (inactive) | 22.1 µM (inactive) | 44.8 µM (inactive) | 26.2 µM (inactive) | 21.8 µM (inactive) | 22.1 µM (inactive) | 29.2 µM (inactive) | 31.3 µM (inactive) | 19.3 µM (inactive) | 37.2 µM (inactive) | 29 µM (inactive) | 22.2 µM (inactive) | 38.2 µM (inactive) | 19 µM (inactive)
COC(=O)c1c2c(cc3c1CC1(Cc4ccccc4C1=O)C3)CCC2 (stereo not given) | 22.4 µM (inactive) | 20.7 µM (inactive) | 26.6 µM (inactive) | 16 µM (inactive) | 17.1 µM (inactive) | 50 µM (inactive) | 8.34 µM (inactive) | 31.3 µM (inactive) | 21.4 µM (inactive) | 13.5 µM (inactive) | 38.8 µM (inactive) | 49.8 µM (inactive) | 19.8 µM (inactive) | 19.5 µM (inactive) | 36.1 µM (inactive) | 55.6 µM (inactive) | 93.3 µM (inactive) | 15.3 µM (inactive) | 25.7 µM (inactive) | 19.4 µM (inactive)
Brc1ccccc1/C=N\C12CC3CC(CC(C3)C1)C2 | > 100 µM (inactive) | > 100 µM (inactive) | 1.85 µM (inactive) | 0.879 µM (active) | 38.4 µM (inactive) | > 64.6 µM (inactive) | 1.02 µM (active) | 28.1 µM (inactive) | > 100 µM (inactive) | 8.47 µM (inactive) | > 65 µM (inactive) | > 100 µM (inactive) | > 100 µM (inactive) | 23.8 µM (inactive) | > 100 µM (inactive) | 63.8 µM (inactive) | > 100 µM (inactive) | 51.6 µM (inactive) | > 63.1 µM (inactive) | 38.2 µM (inactive)
O=C1C=C(Nc2cccnc2)c2ccccc2C1=O | 9.08 µM (inactive) | 3.65 µM (inactive) | 11.6 µM (inactive) | 3.31 µM (inactive) | 17 µM (inactive) | 2.4 µM (inactive) | 1.76 µM (inactive) | 1.91 µM (inactive) | 4.61 µM (inactive) | 0.348 µM (active) | 2.8 µM (inactive) | 4.7 µM (inactive) | 4.25 µM (inactive) | 2.72 µM (inactive) | 8.87 µM (inactive) | 2.92 µM (inactive) | 5.58 µM (inactive) | 1.26 µM (inactive) | 8.02 µM (inactive) | 1.51 µM (inactive)
